In ChEMBL document CHEMBL1201862, “PubChem BioAssay data set” (2004):
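Cultured in 96-well plates, cells were exposed to test compound for 48 hours across five concentrations. GI50 = concentration required for 50% inhibition of growth.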 Active and inactive are the calls of the source. Cut-off read from the data, not from the text of the source: active = GI50 up to about 1.1 µM and inactive = higher.

Legend:
Experiment in all cases: NCI tumour cell line growth inhibition, 48 h
A549 = tested on: A549
ACHN = tested on: ACHN
CCRF-CEM = tested on: CCRF-CEM
HCC 2998 = tested on: HCC 2998
HOP-62 = tested on: HOP-62
HOP-92 = tested on: HOP-92
KM12 = tested on: KM12
MCF7 = tested on: MCF7
MDA-MB-435 = tested on: MDA-MB-435
NCI-H226 = tested on: NCI-H226
OVCAR-5 = tested on: OVCAR-5
PC-3 = tested on: PC-3
SF-295 = tested on: SF-295
SF-539 = tested on: SF-539
SNB-75 = tested on: SNB-75
SR = tested on: SR
T47D = tested on: T47D
UACC-257 = tested on: UACC-257
UO-31 = tested on: UO-31
SK-OV-3 = tested on: SK-OV-3

| Structure (SMILES) | GI50 (A549) | GI50 (ACHN) | GI50 (CCRF-CEM) | GI50 (HCC 2998) | GI50 (HOP-62) | GI50 (HOP-92) | GI50 (KM12) | GI50 (MCF7) | GI50 (MDA-MB-435) | GI50 (NCI-H226) | GI50 (OVCAR-5) | GI50 (PC-3) | GI50 (SF-295) | GI50 (SF-539) | GI50 (SNB-75) | GI50 (SR) | GI50 (T47D) | GI50 (UACC-257) | GI50 (UO-31) | GI50 (SK-OV-3) |
| --- | --- | --- | --- | --- | --- | --- | --- | --- | --- | --- | --- | --- | --- | --- | --- | --- | --- | --- | --- | --- |
| Cc1cc(C)n(C2OC(CO)C(O)C(O)C2O)c(=S)c1C#N (stereo not drawn) | > 100 µM (inactive) | > 100 µM (inactive) | > 100 µM (inactive) | > 100 µM (inactive) | > 100 µM (inactive) | > 100 µM (inactive) | > 100 µM (inactive) | > 100 µM (inactive) | > 100 µM (inactive) | > 100 µM (inactive) | > 100 µM (inactive) | > 100 µM (inactive) | > 100 µM (inactive) | > 100 µM (inactive) | > 100 µM (inactive) | > 100 µM (inactive) | > 100 µM (inactive) | > 100 µM (inactive) | > 100 µM (inactive) |  |
| CC(=O)N1C(=O)c2cc3ccccc3cc21 | > 100 µM (inactive) | > 100 µM (inactive) | 78.2 µM (inactive) | > 100 µM (inactive) | 63.5 µM (inactive) | 62.7 µM (inactive) |  | 31.3 µM (inactive) | > 100 µM (inactive) | > 100 µM (inactive) | > 100 µM (inactive) | > 100 µM (inactive) |  | > 100 µM (inactive) | 92.5 µM (inactive) | > 100 µM (inactive) | > 100 µM (inactive) |  | > 100 µM (inactive) | > 100 µM (inactive) |
| CCCCCCCN(CCCCCCC)CC(O)c1cc2ccccc2c2cc(Br)ccc12 (stereo not drawn) |  | 24.5 µM (inactive) | 40.9 µM (inactive) | 15.2 µM (inactive) | 24.7 µM (inactive) | 19.2 µM (inactive) |  | 12.7 µM (inactive) | 33.1 µM (inactive) |  | > 100 µM (inactive) | 24.2 µM (inactive) | > 10 µM (inactive) | > 100 µM (inactive) | 34.9 µM (inactive) | 22.6 µM (inactive) | 43 µM (inactive) | 40.4 µM (inactive) | 57.1 µM (inactive) | > 100 µM (inactive) |
| Cc1c2cnccc2c(C)c2c1c1ccccc1n2CCCN | 0.408 µM (active) | 0.243 µM (active) |  | 0.615 µM (active) | 0.637 µM (active) | 0.281 µM (active) | 0.137 µM (active) | 0.282 µM (active) | 0.129 µM (active) | 0.873 µM (active) | 0.667 µM (active) | 0.121 µM (active) |  | 0.582 µM (active) | 0.736 µM (active) | < 0.01 µM (active) | 0.526 µM (active) | 1.09 µM (active) | 0.83 µM (active) | 0.74 µM (active) |
| CCN(CCO)CC1COc2ccccc2O1 (stereo not drawn) | > 100 µM (inactive) | > 100 µM (inactive) | > 100 µM (inactive) | > 100 µM (inactive) | > 100 µM (inactive) | > 100 µM (inactive) | > 100 µM (inactive) | > 100 µM (inactive) | > 100 µM (inactive) | > 100 µM (inactive) | > 100 µM (inactive) | > 100 µM (inactive) | > 100 µM (inactive) | > 100 µM (inactive) |  | > 100 µM (inactive) | > 100 µM (inactive) | > 100 µM (inactive) | > 100 µM (inactive) | > 100 µM (inactive) |
| Cc1ccc(N(C)S(=O)(=O)c2ccccc2)cc1 | > 100 µM (inactive) | > 100 µM (inactive) | > 100 µM (inactive) | > 100 µM (inactive) | > 100 µM (inactive) |  | > 100 µM (inactive) | > 100 µM (inactive) | 74 µM (inactive) | > 100 µM (inactive) | > 100 µM (inactive) | 36.2 µM (inactive) | > 100 µM (inactive) | > 100 µM (inactive) | > 100 µM (inactive) | 84.7 µM (inactive) | 47.9 µM (inactive) | > 100 µM (inactive) | > 100 µM (inactive) | > 100 µM (inactive) |
| CCOC(=O)Oc1ccc2c(c1)c(=O)c1c(NCCN(CC)CC)ccc3nnn2c31 | 0.2 µM (active) | 0.406 µM (active) | 0.172 µM (active) | 2.94 µM (inactive) | 1.24 µM (inactive) | 4.22 µM (inactive) | 2.32 µM (inactive) | 0.392 µM (active) | 3.67 µM (inactive) | 0.711 µM (active) | 10.6 µM (inactive) | 2.19 µM (inactive) | 3.78 µM (inactive) | 0.748 µM (active) |  | 0.113 µM (active) | 14.8 µM (inactive) | 7.35 µM (inactive) | 0.165 µM (active) | 8 µM (inactive) |
| Clc1ccc(C(c2ccc(Cl)cc2)N2CCNCC2)cc1 | 2.74 µM (inactive) | 2.16 µM (inactive) | 2.34 µM (inactive) | 1.46 µM (inactive) | 1.87 µM (inactive) | 3.01 µM (inactive) | 1.77 µM (inactive) | 1.91 µM (inactive) | 1.93 µM (inactive) |  | 6.78 µM (inactive) | 2.45 µM (inactive) | 2.28 µM (inactive) | 1.87 µM (inactive) | 2.34 µM (inactive) | 1.75 µM (inactive) | 2.04 µM (inactive) | 2.12 µM (inactive) | 2.02 µM (inactive) | 5.43 µM (inactive) |
| CC(=O)Nc1ccc2c3c(cc(O)c2c1)N(C(=O)CCCCCC(=O)N1CC(CCl)c2c1cc(O)c1cc(NC(C)=O)ccc21)CC3CCl (stereo not drawn) | 0.0176 µM (active) | < 0.01 µM (active) |  | 0.0211 µM (active) | 0.019 µM (active) | < 0.01 µM (active) | 0.0416 µM (active) | < 0.01 µM (active) | 0.0191 µM (active) | < 0.0149 µM (active) | 0.101 µM (active) | 0.045 µM (active) | 0.0156 µM (active) | 0.012 µM (active) | < 0.01 µM (active) | < 0.01 µM (active) | < 0.01 µM (active) | 0.0168 µM (active) | 0.105 µM (active) | 0.0405 µM (active) |
| Cn1ncc(NCCn2cnc3c2c(=O)n(C)c(=O)n3C)c(Cl)c1=O | > 100 µM (inactive) | > 100 µM (inactive) | > 100 µM (inactive) | > 100 µM (inactive) | > 100 µM (inactive) | > 100 µM (inactive) | > 100 µM (inactive) | > 100 µM (inactive) | > 100 µM (inactive) | > 100 µM (inactive) | > 100 µM (inactive) | > 100 µM (inactive) | > 100 µM (inactive) | > 100 µM (inactive) |  | > 100 µM (inactive) | > 100 µM (inactive) | > 100 µM (inactive) | > 100 µM (inactive) | > 100 µM (inactive) |
| COc1ccc(-c2c3c(n(C4OC(CO)C(O)C(O)C4O)c(=S)c2C#N)CCCC3)cc1 (stereo not drawn) | > 100 µM (inactive) | > 100 µM (inactive) | 52 µM (inactive) | > 100 µM (inactive) | > 100 µM (inactive) |  | > 100 µM (inactive) | > 100 µM (inactive) | > 100 µM (inactive) | > 100 µM (inactive) | > 100 µM (inactive) | > 100 µM (inactive) | > 100 µM (inactive) | > 100 µM (inactive) | 0.355 µM (active) | > 100 µM (inactive) | 58.5 µM (inactive) | > 100 µM (inactive) |  | > 100 µM (inactive) |
